Measured values from patent US20020042079A1, “METHODS AND AGENTS FOR MEASURING AND CONTROLLING MULTIDRUG RESISTANCE” (priority 1994, published 2002).
Entries after “also recorded” stand apart in the source; their conditions may differ.

Key:
MCF-7/ADR cells [1] = experiment: Organelle-specific pH measurements with targeted SNARF and FITC probes in living cells; format: cell-based, human
Description: Organelle-specific pH measurements: The pH was measured in selective cellular compartments by targeting ratiometric pH probes to specific organelles. […] Using a Nikon epifluorescence microscope with a intensified CCD camera, the pH probe FITC was excited alternately at 450 nm and 490 nm and emission recorded with a 520/10 bandpass filter. […] In short, to calibrate the pH for the endosomal system, the chamber was perfused with 150 mM sodium buffers at pH of 5, 6 or 7 containing of monensin (20 μM) and nigericin (10 μM) for 5 minutes before recording the fluorescence. For the pH calibrations of cytosol and nucleoplasm, the cells were incubated in 140 mM potassium buffers at pH 6.0, 6.5, 7.0 and 7.5 containing nigericin (20 μM).
After endocytosis, the transferrin is transported through the endosomes and then recycled back to the surface without passage through the lysosomes.
pH in the lysosomes: The pH in the lysosomes was assayed both with light and electron microscopy. […] The pH was calibrated as described above. […] The cells were incubated one hour at room temperature, washed with several changes of PBS pH 7.4 containing 50 mM NH4Cl. […] The cells were embedded in LR White in gelatin capsules and baked at 60° C. for 24 hours in a vacuum oven, sectioned and incubated overnight at 4° C. with anti-DNP antibodies in 4% FBS, washed and incubated in gold (10 nm) labeled secondary antibodies for 2 hours. They were then stained and visualized under the electron microscope.
Cells were plated on polystyrene plates at 50% confluency. Twenty-four to thirty-six hours later, the medium was aspirated and the cells were covered with 50 μl of DME with SNARF-dextran (10 mg/ml). The cells were quickly scraped off the polystyrene and placed in pre-chilled tubes containing 1 ml DME without serum. The cells were harvested (100 g for 5 minutes), washed twice with pre-chilled DME, and plated on Lab-Tek chambers in DME with serum. The cells were allowed to recover for 24 hours prior to examination on a confocal microscope. The pH was calibrated from SNARF fluorescence as described above.
pH in the nucleus: The nucleoplasmic pH was probed by loading the cytosol with SNARF conjugated to a 10 kD dextran. This dextran is too large to cross cellular membranes, but can enter the nucleoplasm by diffusion across the nuclear pores. Confocal fluorescence microscopy was used to prepare optical sections through the cell allowing the fluorescence intensity of the nucleoplasm and cytoplasm to be quantified. The 10 kD SNARF-dextran was loaded into the cytosol and imaged using the same techniques for the 70 kD SNARF-dextrans (see above).

MCF-7/ADR cells [2] = experiment: Subcellular distribution of Adriamycin fluorescence (confocal microscopy); format: cell-based, human; settings: MCF-7/ADR, Monensin 5 μM, Bafilomycin A1 500 nM, concanomycin 100 nM, Tamoxifen 10 μM (50 μM in Example 3), verapamil 10 μM, cyclosporin 5 μM
Description: Adriamycin can be excited between 350 nm-550 nm and emits between 400 nm-700 nm.
Labeling of Cells with Adriamycin: Cells were loaded with Adriamycin (10 μM) added to the perfusion medium. […] For epi-fluorescence, the cells were excited with 450-490 nm filter and emission was monitored with a 510 nm longpass filter.

MCF-7/ADR cells [3] = experiment: Acridine orange labeling of acidic compartments (confocal microscopy); format: cell-based, human; settings: for red-orange acridine orange fluorescence of cytoplasmic organelles after addition of agent: MCF-7/ADR, 30 minutes, Monensin 5 μM, Bafilomycin A1 500 nM, concanomycin 100 nM, Tamoxifen 5 or 10 μM, verapamil 10 μM, cyclosporin A 10 μM
Description: Confocal fluorescence imaging of intracellular pH and acidic compartments: Acridine orange (2 μg/ml media; 4 mg/ml stock in water) was added directly to the chambers and the cells were incubated with the dye at 37° C. for 30 minutes. Cells in the presence of acridine orange were then examined at room temperature with an Insight Bilateral Laser Scanning Confocal Microscope (Meridian Instruments, Okemos, Mich.). […] Optical sections of the fluorescent sample were recorded at 0.5 micron intervals. […] The acetoxymethylester derivative of SNAFL-calcein (15 μg/ml) (Molecular Probes, Eugene, Oreg.) (a radiometric fluorescent probe for pH) was added to both MCF-7 and MCF-7adr cells. The ester linked fluorescent probe enters the cell passively where the esters are hydrolyzed by esterases located in the cytoplasm and intracellular vesicles. The SNAFL-calcein is then ionically trapped within the cytoplasm and vesicular compartments. […] These images were then compared to standard curves that were obtained in the following manner. […] Cells treated with monensin were exposed to the drug (10 μg/ml of media) for 30 minutes at 37° C. prior to labeling with SNAFL-calcein as described above. All cells were examined at room temperature.
The green and red emissions were collected using two photomultiplier tubes. […] Green emission was next passed through a 530 nm/30 nm bandpass filter and collected by the on-axis photomultiplier tube. Red emission was passed through a 610 nm longpass filter and collected by the 90° side photomultiplier tube.
Optical sections of the fluorescent samples were recorded at 0.5 micron intervals with a 60×oil immersion objective.

MCF-7/ADR cells [4] = experiment: Lysosomal acidification by DAMP immuno-electron microscopy; format: cell-based, human; parameters: dose or concentration left out as unconfirmed; settings: MCF-7/ADR cells treated prior to DAMP
Description: pH in the lysosomes: The pH in the lysosomes was assayed both with light and electron microscopy. Light microscopy: […] Cell Biol., 105:2723-2733 (1987)]. The pH was calibrated as described above. Electron microscopy: The cells were incubated with the weak base DAMP, fixed, probed with an mouse antibody to DNP (cross-reacts with DAMP) and visualized with gold-conjugated anti-mouse antibodies. […] Then DAMP was added to a final concentration of at 70 μM and the cells were incubated for another 45 minutes. The medium was replaced with phosphate buffered saline (PBS), pH 7.4, with 4% paraformaldehyde and 0.75% gluteraldehyde. […] They were then stained and visualized under the electron microscope.

MCF-7/ADR cells [5] = experiment: Cell viability assay of Adriamycin sensitivity (Hoechst 33258 DNA content); settings: for effect on sensitivity of drug-resistant cells to Adriamycin: MCF-7/ADR (MCF-7adr) cells, agent co-incubated with adriamycin for 6 hours
Description: After 6 hours, the media was removed, the cells rinsed, and then fed with fresh media not containing drugs. […] Media was aspirated and the wells rinsed with Hanks Balanced Salt Solution (HBSS, phenol red free). The cells were sonicated in hypotonic media (0.1×HBSS) for 30 seconds. […] Calf thymus DNA was used for calibration.
Cell viability assays: The media was removed 60 hr. after plating the cells and replaced with fresh media supplemented with various concentrations of adriamycin (Calbiochem, CA) and monensin (solubilized in DMF 0.1%) (Sigma, St. Louis). After 6 hr the media was removed, the cells rinsed, and then fed with fresh media not containing drugs. […] Media was aspirated and the wells rinsed with Hanks Balanced Salt Solution (HBSS, phenol red free). The cells were sonicated in hypotonic media (0.1×HBSS) for 30 seconds. […] Calf thymus DNA was used for calibration.
Cell Viability Assays: Cell viability was assayed by plating cells at ˜1000 cells/well in 24 well plates (Falcon) in DME. […] The cells were fed daily for three days and then cell viability was quantified with two independent techniques: an assay of total DNA and an assay of volume of viable cells. […] Calf thymus DNA was used for calibration.
After three days cell viability was assayed.

CC[C@@]1([C@@H]2O[C@@H]([C@H]3O[C@@](O)(CO)[C@H](C)C[C@@H]3C)C[C@@H]2C)CC[C@H]([C@]2(C)CC[C@]3(C[C@H](O)[C@@H](C)[C@@H]([C@@H](C)[C@@H](OC)[C@H](C)C(=O)O)O3)O2)O1 [Monensin]
shift of cytosolic pH, more alkaline (MCF-7/ADR cells [1]; MCF-7/ADR cells, SNARF 70 kD dextran, Tamoxifen at 10 μM): 0.2 units
Adriamycin distribution after addition of agent (MCF-7/ADR cells [2]): Adriamycin is found to accumulate within the nucleus
Adriamycin distribution after addition of agent (MCF-7/ADR cells [2]; listed as monensin): redistributed Adriamycin to the nucleoplasm
red-orange acridine orange fluorescence of cytoplasmic organelles after addition of agent (MCF-7/ADR cells [3]): loss of the red-orange fluorescence
red-orange acridine orange fluorescence of cytoplasmic organelles after addition of agent (MCF-7/ADR cells [3]; listed as monensin): did not exhibit the red spectral shift within the vesicles
average density of gold particles (anti-DNP labeling of DAMP) per lysosomal area (MCF-7/ADR cells [4]): zero
effect on sensitivity of drug-resistant cells to Adriamycin (MCF-7/ADR cells [5]): increased the drug sensitivity of the MCF-7adr cells to the level observed for drug-sensitive cells

CC/C(=C(\c1ccccc1)c1ccc(OCCN(C)C)cc1)c1ccccc1 [Tamoxifen]
change with Tamoxifen, pH Lysosomes SNARF-conjugated dextran (MCF-7/ADR cells [1]; MCF-7/ADR): >+1.1
change with Tamoxifen, pH Recycling endosomes FITC-conjugated transferrin (MCF-7/ADR cells [1]; MCF-7/ADR): +0.5
change with Tamoxifen, pH lysosomes FITC conjugated dextran (MCF-7/ADR cells [1]; MCF-7/ADR): >+1.2
pH Cytosol (SNARF 70 kD dextran) (MCF-7/ADR cells [1]; MCF-7/ADR + Tamoxifen (10 μM)): 7.20 ± 0.1
pH Lysosomes SNARF-conjugated dextran (MCF-7/ADR cells [1]; MCF-7/ADR + Tamoxifen (10 μM)): 7.1
pH Nucleus (SNARF 10 kD dextran) (MCF-7/ADR cells [1]; MCF-7/ADR + Tamoxifen (10 μM)): 7.20 ± 0.1
pH Recycling endosomes FITC-conjugated transferrin (MCF-7/ADR cells [1]; MCF-7/ADR + Tamoxifen (10 μM)): 6.7 ± 0.2
pH lysosomes FITC conjugated dextran (MCF-7/ADR cells [1]; MCF-7/ADR + Tamoxifen (10 μM), FITC cannot discriminate pH above 6.6): > 6.6
pH Recycling endosomes FITC-conjugated transferrin (MCF-7/ADR cells [1]; MCF-7/ADR + Tamoxifen (10 μM), listed as tamoxifen): 6.7
Adriamycin distribution after addition of agent (MCF-7/ADR cells [2]): the concentration of Adriamycin in the nucleus was substantially increased
Adriamycin distribution after addition of agent (MCF-7/ADR cells [2]; listed as tamoxifen): shifts the adriamycin distribution to that observed in the MCF-7 cells; also recorded: shift of Adriamycin from punctate perinuclear compartments
red-orange acridine orange fluorescence of cytoplasmic organelles after addition of agent (MCF-7/ADR cells [3]): loss of the red-orange cytoplasmic fluorescence
red-orange acridine orange fluorescence of cytoplasmic organelles after addition of agent (MCF-7/ADR cells [3]; listed as tamoxifen): steady decrease of the red acridine orange fluorescence
acridine orange staining of acidic vesicles after treatment (MCF-7/ADR cells [3]; MCF-7adr (Examples 2, 3), nigericin 7.5 μM, tamoxifen 50 μM): loss of acridine orange staining within the pericentriolar region
average density of gold particles (anti-DNP labeling of DAMP) per lysosomal area (MCF-7/ADR cells [4]): 2.0 /μm^2
cell death (MCF-7/ADR cells [5]; 1 μM Adriamycin in the presence of 5 μM Tamoxifen, 6 hours exposure, assayed after three days): 95%
cell viability in the absence of Adriamycin (MCF-7/ADR cells [5]; 5 μM Tamoxifen alone): no decrease in viability; also recorded: little effect on cell viability
effect on sensitivity of drug-resistant cells to Adriamycin (MCF-7/ADR cells [5]): substantially increased the sensitivity of the cells to Adriamycin
effect on sensitivity of drug-resistant cells to Adriamycin (MCF-7/ADR cells [5]; listed as tamoxifen): significantly enhanced sensitivity to adriamycin
